Measurements reported in article PMC6354820 (Endocrinology, Diabetes & Metabolism, 2018).

Key:
[1] = biological target: Kir6.2 (pore subunit of the pancreatic beta-cell KATP channel) (Mus musculus, UniProt Q61743); experiment: inside-out patch-clamp, single-channel NPo concentration-effect; type: cell-based
[2] = biological target: SUR1 (sulphonylurea receptor subunit of the pancreatic beta-cell KATP channel) (Mus musculus, UniProt B2RUS7); experiment: standard whole-cell patch-clamp, block by a single concentration; type: cell-based; conditions: read-out: % inhibition at 20 μmol/L
Sequence of SUR1 (sulphonylurea receptor subunit of the pancreatic beta-cell KATP channel) (B2RUS7 1-1588): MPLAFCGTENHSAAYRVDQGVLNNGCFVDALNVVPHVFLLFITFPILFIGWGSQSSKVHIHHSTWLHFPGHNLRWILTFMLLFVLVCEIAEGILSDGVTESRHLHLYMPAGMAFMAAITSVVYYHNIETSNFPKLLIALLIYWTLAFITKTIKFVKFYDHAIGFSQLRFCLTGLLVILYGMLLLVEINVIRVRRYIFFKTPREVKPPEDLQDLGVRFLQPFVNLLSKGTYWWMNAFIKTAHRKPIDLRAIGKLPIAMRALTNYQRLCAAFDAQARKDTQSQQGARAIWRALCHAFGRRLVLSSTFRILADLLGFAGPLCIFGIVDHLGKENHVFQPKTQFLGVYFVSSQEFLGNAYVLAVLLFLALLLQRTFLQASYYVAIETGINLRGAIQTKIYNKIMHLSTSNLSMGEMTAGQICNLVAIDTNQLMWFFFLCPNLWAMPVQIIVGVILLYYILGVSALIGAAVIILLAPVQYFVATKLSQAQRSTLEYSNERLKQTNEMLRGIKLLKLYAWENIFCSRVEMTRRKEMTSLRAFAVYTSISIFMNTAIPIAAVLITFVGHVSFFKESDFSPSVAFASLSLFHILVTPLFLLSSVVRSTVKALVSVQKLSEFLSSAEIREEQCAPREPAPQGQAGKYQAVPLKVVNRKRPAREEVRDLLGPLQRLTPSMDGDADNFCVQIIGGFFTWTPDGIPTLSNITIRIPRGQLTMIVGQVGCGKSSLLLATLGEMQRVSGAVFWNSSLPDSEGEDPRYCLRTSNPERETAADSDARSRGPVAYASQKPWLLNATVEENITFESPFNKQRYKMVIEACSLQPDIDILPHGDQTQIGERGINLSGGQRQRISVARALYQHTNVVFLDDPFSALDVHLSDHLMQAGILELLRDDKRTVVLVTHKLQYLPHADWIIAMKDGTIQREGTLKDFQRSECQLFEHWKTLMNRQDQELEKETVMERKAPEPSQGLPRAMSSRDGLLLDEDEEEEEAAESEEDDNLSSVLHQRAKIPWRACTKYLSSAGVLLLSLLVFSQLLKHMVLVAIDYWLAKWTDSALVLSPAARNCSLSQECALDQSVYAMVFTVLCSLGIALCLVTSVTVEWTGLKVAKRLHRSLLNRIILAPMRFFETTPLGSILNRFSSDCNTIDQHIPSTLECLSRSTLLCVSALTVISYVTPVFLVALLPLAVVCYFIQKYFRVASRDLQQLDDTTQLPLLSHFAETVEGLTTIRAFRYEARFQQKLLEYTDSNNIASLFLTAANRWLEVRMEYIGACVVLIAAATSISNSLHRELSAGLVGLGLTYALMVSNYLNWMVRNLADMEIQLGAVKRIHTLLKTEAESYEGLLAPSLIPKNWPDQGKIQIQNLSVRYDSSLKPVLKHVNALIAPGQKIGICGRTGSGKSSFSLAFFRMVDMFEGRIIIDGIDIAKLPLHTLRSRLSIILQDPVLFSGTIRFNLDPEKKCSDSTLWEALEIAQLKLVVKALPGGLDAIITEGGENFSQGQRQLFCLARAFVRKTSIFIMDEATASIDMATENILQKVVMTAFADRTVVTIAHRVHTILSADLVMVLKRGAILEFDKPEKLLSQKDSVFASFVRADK
Sequence of SUR1 (sulphonylurea receptor subunit of the pancreatic beta-cell KATP channel) (Q61743 whole entry partner): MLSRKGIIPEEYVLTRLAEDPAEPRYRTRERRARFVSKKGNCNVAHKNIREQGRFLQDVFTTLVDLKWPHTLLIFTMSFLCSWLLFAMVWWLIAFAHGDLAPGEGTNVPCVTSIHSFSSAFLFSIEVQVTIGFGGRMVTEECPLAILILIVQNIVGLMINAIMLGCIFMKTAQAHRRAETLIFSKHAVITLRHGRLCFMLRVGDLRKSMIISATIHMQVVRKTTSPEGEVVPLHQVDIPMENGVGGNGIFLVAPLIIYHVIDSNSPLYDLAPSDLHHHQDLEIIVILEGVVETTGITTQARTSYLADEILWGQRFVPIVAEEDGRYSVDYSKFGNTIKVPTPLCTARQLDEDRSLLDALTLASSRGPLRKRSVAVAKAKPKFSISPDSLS

Sequence of Kir6.2 (pore subunit of the pancreatic beta-cell KATP channel) (Q61743 whole entry): as the sequence (Q61743 whole entry partner) above
Sequence of Kir6.2 (pore subunit of the pancreatic beta-cell KATP channel) (B2RUS7 1-1588 partner): as the sequence (B2RUS7 1-1588) above

| Compound | IC50 [1] [µM] | inhibition at 20 µM [2] [%] |
| --- | --- | --- |
| CCC(C)(C)C(=O)O[C@H]1C[C@@H](C)C=C2C=C[C@H](C)[C@H](CC[C@@H]3C[C@@H](O)CC(=O)O3)[C@H]21 [Sim, simvastatin] | 0.026 | – |
| CCCCNC(=O)NS(=O)(=O)c1ccc(C)cc1 [Tb, tolbutamide] | – | 43 ± 3.3 |
